Laboratory results reported in paper PMC11864979, “First-in-class ultralong-target-residence-time p38α inhibitors as a mitosis-targeted therapy for colorectal cancer” (Nature Cancer, 2025).
Like-named read-outs stand apart in the source and are kept apart here.

What was measured:
Experiment in all cases: selectivity profiling in a panel of 340 wild-type kinases (Reaction Biology Europe)
Type in all cases: binding
[1] = molecular target: T1, 340 wild-type kinases (Homo sapiens, UniProt P49137)
T1 construct: purchased Reaction Biology Europe
T1 sequence (P49137 whole entry): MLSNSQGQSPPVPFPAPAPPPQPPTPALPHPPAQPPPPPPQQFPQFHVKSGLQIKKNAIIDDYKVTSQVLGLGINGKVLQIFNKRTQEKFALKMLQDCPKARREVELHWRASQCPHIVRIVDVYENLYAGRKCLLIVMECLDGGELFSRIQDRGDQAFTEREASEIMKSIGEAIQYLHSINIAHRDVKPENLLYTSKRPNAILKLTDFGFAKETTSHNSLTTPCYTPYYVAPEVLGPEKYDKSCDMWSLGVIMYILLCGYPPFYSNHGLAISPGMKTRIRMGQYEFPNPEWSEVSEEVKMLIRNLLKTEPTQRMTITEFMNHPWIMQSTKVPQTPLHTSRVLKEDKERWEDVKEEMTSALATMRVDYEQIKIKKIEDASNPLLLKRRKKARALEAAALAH

[2] = molecular target: T2, 340 wild-type kinases (Homo sapiens, UniProt P49760)
T2 construct: purchased Reaction Biology Europe
T2 sequence (P49760 whole entry): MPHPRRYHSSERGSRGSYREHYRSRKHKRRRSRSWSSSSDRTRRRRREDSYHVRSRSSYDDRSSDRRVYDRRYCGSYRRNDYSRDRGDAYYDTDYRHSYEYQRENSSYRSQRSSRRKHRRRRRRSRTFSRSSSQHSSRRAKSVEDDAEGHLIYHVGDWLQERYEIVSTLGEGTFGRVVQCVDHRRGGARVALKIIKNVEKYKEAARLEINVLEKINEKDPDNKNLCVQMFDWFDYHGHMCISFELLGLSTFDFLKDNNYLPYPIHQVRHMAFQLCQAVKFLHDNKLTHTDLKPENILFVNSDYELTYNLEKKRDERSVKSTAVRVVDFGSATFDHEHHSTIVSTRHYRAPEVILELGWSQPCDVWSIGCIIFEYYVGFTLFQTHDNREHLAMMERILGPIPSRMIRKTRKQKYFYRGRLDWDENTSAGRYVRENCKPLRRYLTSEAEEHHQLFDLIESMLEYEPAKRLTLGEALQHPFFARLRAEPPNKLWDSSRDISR

[3] = molecular target: T3, 340 wild-type kinases (Homo sapiens, UniProt P54764)
T3 construct: purchased Reaction Biology Europe
T3 sequence (P54764 20-986): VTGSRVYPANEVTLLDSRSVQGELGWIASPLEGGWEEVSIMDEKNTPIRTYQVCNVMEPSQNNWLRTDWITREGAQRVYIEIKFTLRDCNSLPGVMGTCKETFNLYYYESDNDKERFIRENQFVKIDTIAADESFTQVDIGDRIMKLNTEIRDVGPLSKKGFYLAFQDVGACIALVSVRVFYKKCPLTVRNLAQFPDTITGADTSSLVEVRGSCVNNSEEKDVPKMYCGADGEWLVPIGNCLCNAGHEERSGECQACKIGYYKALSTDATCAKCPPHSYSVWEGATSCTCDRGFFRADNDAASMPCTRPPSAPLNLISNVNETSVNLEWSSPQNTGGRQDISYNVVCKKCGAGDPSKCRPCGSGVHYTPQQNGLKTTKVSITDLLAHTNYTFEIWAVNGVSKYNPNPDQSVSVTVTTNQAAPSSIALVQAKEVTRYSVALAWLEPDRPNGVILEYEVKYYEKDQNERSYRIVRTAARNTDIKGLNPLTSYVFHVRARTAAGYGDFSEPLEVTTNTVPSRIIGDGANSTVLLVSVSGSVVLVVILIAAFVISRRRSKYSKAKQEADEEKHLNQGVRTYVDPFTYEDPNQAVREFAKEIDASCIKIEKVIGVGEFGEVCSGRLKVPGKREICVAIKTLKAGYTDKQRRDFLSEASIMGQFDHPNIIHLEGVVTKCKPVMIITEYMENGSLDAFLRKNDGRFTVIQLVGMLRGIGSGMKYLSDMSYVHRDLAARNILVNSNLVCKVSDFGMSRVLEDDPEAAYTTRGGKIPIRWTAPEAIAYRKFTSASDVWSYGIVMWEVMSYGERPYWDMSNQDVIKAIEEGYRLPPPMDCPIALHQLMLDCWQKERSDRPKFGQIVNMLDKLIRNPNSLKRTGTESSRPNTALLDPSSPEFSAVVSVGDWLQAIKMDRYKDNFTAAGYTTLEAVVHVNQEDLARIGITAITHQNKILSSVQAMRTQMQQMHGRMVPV

[4] = molecular target: T4, 340 wild-type kinases (Homo sapiens, UniProt P57059)
T4 construct: purchased Reaction Biology Europe
T4 sequence (P57059 whole entry): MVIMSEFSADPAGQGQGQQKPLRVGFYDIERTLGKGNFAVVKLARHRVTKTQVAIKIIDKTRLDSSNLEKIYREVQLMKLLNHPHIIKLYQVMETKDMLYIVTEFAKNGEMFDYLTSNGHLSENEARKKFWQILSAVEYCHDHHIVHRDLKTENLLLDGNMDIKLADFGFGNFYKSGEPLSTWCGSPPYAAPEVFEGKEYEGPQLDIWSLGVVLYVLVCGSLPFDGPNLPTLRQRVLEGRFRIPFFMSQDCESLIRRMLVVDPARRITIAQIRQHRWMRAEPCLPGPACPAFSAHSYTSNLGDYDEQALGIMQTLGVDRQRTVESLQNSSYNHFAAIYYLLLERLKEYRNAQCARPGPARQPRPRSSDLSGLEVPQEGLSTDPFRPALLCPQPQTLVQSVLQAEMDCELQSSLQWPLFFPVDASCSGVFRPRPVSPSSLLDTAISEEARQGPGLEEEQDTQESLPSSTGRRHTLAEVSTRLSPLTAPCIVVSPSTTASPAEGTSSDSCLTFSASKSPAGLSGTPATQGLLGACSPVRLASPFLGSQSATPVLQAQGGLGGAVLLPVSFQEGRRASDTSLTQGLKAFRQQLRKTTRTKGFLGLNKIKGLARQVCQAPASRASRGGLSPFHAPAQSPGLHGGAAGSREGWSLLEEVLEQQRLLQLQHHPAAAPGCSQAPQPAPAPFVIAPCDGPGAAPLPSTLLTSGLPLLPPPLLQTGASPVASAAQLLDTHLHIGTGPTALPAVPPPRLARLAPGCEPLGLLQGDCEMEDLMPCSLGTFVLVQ

[5] = molecular target: T5, 340 wild-type kinases (Homo sapiens, UniProt Q02750)
T5 construct: purchased Reaction Biology Europe
T5 sequence (Q02750 whole entry): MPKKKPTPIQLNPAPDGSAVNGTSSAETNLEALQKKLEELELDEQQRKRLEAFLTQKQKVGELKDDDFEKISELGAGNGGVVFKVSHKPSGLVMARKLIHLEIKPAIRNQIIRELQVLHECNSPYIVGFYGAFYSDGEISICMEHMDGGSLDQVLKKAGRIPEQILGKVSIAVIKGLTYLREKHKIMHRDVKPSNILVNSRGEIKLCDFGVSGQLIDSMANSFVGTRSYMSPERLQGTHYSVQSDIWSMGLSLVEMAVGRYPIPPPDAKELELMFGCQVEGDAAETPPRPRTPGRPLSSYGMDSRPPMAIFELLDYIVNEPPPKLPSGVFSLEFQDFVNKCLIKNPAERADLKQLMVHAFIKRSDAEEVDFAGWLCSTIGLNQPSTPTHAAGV

[6] = molecular target: T6, 340 wild-type kinases (Homo sapiens, UniProt Q06418)
T6 construct: purchased Reaction Biology Europe
T6 sequence (Q06418 41-890): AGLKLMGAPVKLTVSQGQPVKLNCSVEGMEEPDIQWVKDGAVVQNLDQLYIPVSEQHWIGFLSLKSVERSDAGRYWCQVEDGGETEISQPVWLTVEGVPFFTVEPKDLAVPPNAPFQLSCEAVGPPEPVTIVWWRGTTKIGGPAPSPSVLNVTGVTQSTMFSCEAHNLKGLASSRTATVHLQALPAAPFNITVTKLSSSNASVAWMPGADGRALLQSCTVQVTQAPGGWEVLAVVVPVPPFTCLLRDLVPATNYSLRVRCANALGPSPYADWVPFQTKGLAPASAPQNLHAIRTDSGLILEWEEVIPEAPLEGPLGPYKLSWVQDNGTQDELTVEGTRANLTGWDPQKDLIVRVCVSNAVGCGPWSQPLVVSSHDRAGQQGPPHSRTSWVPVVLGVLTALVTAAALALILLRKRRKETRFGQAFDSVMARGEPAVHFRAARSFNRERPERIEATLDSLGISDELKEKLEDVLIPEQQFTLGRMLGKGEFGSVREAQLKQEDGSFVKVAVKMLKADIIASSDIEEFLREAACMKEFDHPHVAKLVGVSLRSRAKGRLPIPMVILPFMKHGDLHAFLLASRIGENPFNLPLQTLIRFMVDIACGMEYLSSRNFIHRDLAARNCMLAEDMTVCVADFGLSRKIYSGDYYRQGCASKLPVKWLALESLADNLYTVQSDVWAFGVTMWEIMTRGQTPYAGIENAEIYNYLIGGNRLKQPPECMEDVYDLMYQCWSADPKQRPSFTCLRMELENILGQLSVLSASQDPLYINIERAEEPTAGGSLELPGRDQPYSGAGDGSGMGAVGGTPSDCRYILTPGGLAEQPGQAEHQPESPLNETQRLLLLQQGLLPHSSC

[7] = molecular target: T7, 340 wild-type kinases (Homo sapiens, UniProt Q8TF76)
T7 construct: purchased Reaction Biology Europe
T7 sequence (Q8TF76 1-798): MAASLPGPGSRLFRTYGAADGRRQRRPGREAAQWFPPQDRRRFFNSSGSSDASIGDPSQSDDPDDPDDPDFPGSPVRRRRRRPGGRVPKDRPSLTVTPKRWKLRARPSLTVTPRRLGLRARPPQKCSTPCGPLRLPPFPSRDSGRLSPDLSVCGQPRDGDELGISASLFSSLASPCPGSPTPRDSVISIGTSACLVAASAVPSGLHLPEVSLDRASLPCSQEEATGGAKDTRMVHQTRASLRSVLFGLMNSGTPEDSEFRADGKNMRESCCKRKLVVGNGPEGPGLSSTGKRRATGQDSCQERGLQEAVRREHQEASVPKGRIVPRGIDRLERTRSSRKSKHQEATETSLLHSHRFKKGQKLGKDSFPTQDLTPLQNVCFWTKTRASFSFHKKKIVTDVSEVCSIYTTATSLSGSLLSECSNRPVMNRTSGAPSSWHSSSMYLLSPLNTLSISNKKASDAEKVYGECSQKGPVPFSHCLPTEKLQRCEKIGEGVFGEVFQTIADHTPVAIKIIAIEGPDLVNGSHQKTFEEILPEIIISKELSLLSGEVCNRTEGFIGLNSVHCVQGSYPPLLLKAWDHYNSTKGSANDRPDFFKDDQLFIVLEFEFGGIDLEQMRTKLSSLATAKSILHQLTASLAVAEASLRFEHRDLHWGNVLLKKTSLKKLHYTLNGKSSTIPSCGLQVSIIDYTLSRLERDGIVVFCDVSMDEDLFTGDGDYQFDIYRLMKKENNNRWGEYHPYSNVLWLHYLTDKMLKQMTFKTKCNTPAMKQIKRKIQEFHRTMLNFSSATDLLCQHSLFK

[8] = molecular target: T8, 340 wild-type kinases (Homo sapiens, UniProt Q9H4A3)
T8 construct: purchased Reaction Biology Europe

[9] = molecular target: T9, 340 wild-type kinases (Homo sapiens, UniProt Q9UM73)
T9 construct: purchased Reaction Biology Europe
T9 sequence (Q9UM73 19-1620): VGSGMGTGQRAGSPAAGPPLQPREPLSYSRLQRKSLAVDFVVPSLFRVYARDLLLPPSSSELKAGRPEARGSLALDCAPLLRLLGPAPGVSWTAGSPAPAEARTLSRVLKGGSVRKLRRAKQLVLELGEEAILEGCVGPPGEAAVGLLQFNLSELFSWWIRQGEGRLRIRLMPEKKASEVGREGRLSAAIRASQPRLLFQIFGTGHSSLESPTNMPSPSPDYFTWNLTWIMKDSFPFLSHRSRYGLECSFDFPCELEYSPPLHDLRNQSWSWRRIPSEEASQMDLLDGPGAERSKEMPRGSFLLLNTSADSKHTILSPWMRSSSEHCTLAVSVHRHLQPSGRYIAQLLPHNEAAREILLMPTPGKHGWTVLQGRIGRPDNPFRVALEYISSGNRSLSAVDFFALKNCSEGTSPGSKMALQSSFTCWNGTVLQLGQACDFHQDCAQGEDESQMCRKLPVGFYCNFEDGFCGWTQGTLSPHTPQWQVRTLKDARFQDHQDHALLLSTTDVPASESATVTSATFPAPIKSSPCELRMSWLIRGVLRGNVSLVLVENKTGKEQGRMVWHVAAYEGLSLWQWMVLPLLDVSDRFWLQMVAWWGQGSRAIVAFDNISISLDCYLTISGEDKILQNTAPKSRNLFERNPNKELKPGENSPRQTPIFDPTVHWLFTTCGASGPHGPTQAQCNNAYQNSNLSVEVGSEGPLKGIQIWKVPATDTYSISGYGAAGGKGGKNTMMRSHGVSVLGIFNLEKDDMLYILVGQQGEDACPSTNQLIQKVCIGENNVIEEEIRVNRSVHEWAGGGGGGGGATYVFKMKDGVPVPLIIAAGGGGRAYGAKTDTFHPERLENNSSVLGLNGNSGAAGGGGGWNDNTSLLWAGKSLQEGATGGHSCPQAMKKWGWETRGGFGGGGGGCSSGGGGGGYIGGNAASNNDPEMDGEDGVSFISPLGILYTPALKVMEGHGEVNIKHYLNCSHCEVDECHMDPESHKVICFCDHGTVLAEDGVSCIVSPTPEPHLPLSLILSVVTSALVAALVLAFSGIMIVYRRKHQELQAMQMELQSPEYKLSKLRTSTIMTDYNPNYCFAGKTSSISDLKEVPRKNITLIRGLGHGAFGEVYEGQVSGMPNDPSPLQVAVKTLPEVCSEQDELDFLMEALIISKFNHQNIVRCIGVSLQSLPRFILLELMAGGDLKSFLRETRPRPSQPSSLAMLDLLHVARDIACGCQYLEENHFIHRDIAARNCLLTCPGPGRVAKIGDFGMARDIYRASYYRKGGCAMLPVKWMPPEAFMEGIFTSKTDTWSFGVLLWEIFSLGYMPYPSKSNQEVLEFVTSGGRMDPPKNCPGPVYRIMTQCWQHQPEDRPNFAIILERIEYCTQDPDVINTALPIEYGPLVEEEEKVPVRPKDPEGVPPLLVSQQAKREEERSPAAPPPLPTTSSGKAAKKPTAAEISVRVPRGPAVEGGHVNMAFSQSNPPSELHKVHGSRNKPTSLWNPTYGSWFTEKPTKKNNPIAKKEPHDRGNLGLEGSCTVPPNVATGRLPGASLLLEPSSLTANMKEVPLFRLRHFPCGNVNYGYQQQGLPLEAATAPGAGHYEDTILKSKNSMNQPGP

## CNC(=O)c1ccc2c(c1)C(=O)c1ccc(Nc3ccc(F)c(NC(=O)C4CC4)c3)cc1CC2 [Compound 2015]
[1]; 0.2 µM 2015, read-out: MAPKAPK2 residual activity
  remaining activity at 0.2 µM: 153%
[1]; 1 µM 2015, read-out: MAPKAPK2 residual activity
  remaining activity at 1 µM: 118%
[1]; MAPKAPK2, 0.2 µM, read-out: residual activity
  remaining activity at 0.2 µM: 153%
[1]; MAPKAPK2, 1 µM, read-out: residual activity
  remaining activity at 1 µM: 118%
[2]; 0.2 µM 2015, read-out: CLK2 residual activity
  remaining activity at 0.2 µM: 110%
[2]; 1 µM 2015, read-out: CLK2 residual activity
  remaining activity at 1 µM: 96.8%
[2]; CLK2, 0.2 µM, read-out: residual activity
  remaining activity at 0.2 µM: 110%
[2]; CLK2, 1 µM, read-out: residual activity
  remaining activity at 1 µM: 96.8%
[3]; 0.2 µM 2015, read-out: EPHA4 residual activity
  remaining activity at 0.2 µM: 95.1%
[3]; 1 µM 2015, read-out: EPHA4 residual activity
  remaining activity at 1 µM: 91.4%
[3]; EPHA4, 0.2 µM, read-out: residual activity
  remaining activity at 0.2 µM: 95.1%
[3]; EPHA4, 1 µM, read-out: residual activity
  remaining activity at 1 µM: 91.5%
[4]; 0.2 µM 2015, read-out: SIK1 residual activity
  remaining activity at 0.2 µM: 90.9%
[4]; 1 µM 2015, read-out: SIK1 residual activity
  remaining activity at 1 µM: 85.5%
[4]; SIK1, 0.2 µM, read-out: residual activity
  remaining activity at 0.2 µM: 90.9%
[4]; SIK1, 1 µM, read-out: residual activity
  remaining activity at 1 µM: 85.5%
[5]; 0.2 µM 2015, read-out: MEK1 residual activity
  remaining activity at 0.2 µM: 105%
[5]; 1 µM 2015, read-out: MEK1 residual activity
  remaining activity at 1 µM: 99.8%
[5]; MEK1, 0.2 µM, read-out: residual activity
  remaining activity at 0.2 µM: 105%
[5]; MEK1, 1 µM, read-out: residual activity
  remaining activity at 1 µM: 99.8%
[6]; 0.2 µM 2015, read-out: TYRO3 residual activity
  remaining activity at 0.2 µM: 93.9%
[6]; 1 µM 2015, read-out: TYRO3 residual activity
  remaining activity at 1 µM: 86.6%
[6]; TYRO3, 0.2 µM, read-out: residual activity
  remaining activity at 0.2 µM: 94%
[6]; TYRO3, 1 µM, read-out: residual activity
  remaining activity at 1 µM: 86.6%
[7]; 0.2 µM 2015, read-out: GSG2 residual activity
  remaining activity at 0.2 µM: 105%
[7]; 1 µM 2015, read-out: GSG2 residual activity
  remaining activity at 1 µM: 82.5%
[7]; GSG2, 0.2 µM, read-out: residual activity
  remaining activity at 0.2 µM: 105%
[7]; GSG2, 1 µM, read-out: residual activity
  remaining activity at 1 µM: 82.5%
[8]; 0.2 µM 2015, read-out: WNK1 residual activity
  remaining activity at 0.2 µM: 95%
[8]; 1 µM 2015, read-out: WNK1 residual activity
  remaining activity at 1 µM: 91.4%
[8]; WNK1, 0.2 µM, read-out: residual activity
  remaining activity at 0.2 µM: 95%
[8]; WNK1, 1 µM, read-out: residual activity
  remaining activity at 1 µM: 91.4%
[9]; 0.2 µM 2015, read-out: ALK residual activity
  remaining activity at 0.2 µM: 95.3%
[9]; 1 µM 2015, read-out: ALK residual activity
  remaining activity at 1 µM: 86.8%
[9]; ALK, 0.2 µM, read-out: residual activity
  remaining activity at 0.2 µM: 95.3%
[9]; ALK, 1 µM, read-out: residual activity
  remaining activity at 1 µM: 86.8%
